From publication PMC12211128, “Safety, tolerability, pharmacokinetic and pharmacodynamic effects of the muscarinic M1 positive allosteric modulator VU0467319 for Alzheimer’s disease: a single ascending-dose study in healthy participants” (Alzheimer's Research & Therapy, 2025)

Assays:
[1] = test system: healthy participants; test: Selective Reminding Task (SRT); type: in vivo, human; details: for SRT Delayed Recall / SRT Immediate Recall / SRT Recall Consistency / SRT Recall Failure: mean (SD)
Text: The Selective Reminding Task (SRT; [36]) was used to test immediate and delayed episodic memory. Participants were read a list of 16 words and must immediately recall the list across eight trials, then again after a 20-minute delay. The outcome measures were the SRT total immediate recall across the eight trials, recall consistency as the number of words correctly recalled on two sequential trials, recall failure as the number of words not recalled on two sequential trials, and the delayed recall after the 20-min delay.
(§1) Cognitive data: In this exploratory analysis, each outcome variable of the cognitive data was examined in a mixed model analysis of variance with one between-subjects factor of VU319 dose (0, 60, 120, 240, 400, 600 mg) and a within-subjects factor of testing session (pre-dose vs. post-dost administration). Post-hoc analysis compared each of the VU319 dose cohorts against the placebo group. Because the participants were healthy adults with normal cognitive function, we considered effects between no reductions in function to small improvement (d = 0.0–0.20) to be a positive result. For the food effect study, only the participants who received VU319 were examined due to the disproportionately small placebo group (n = 2). A within-subjects ANOVA including food condition (fasted/fed) and testing session (pre-dose vs. post-dose administration) was performed on each outcome variable.
The Selective Reminding Task (SRT; (Buschke & Fuld, 1974)) was used to test immediate and delayed episodic recall. Participants were read a list of 16 words and must immediately recall the list across 8 trials. […] Upon completing the immediate recall portion of the SRT and after a 20‐minute delay, participants were asked to complete a single delayed recall trial. SRT total immediate recall was analyzed using the number of correctly recalled words across trials 1–8, total immediate recall consistency was analyzed using the number of words correctly recalled on two sequential trials across trials 1–8, SRT total immediate recall failure was analyzed using the number of words not recalled on two sequential trials across trials 1–8, and total delayed recall was analyzed using the number of words correctly recalled after a 20-min delay.

[2] = test system: healthy participants; test: Critical flicker fusion task (CFF); type: in vivo, human; details: for CFF Median Ascending score / CFF Median Descending score: mean (SD)
Text: The critical flicker fusion task (CFF; [30]) was used to test perceptual vigilance using the frequency of a flickering LED (between 12 and 50 Hz). The outcome variable for CFF is frequency (Hz) for ascending and descending trials. In the ascending trials, the participants pressed a button indicating when the light flickered to a speed where they appear to be continuously on or fused. In the descending trials, the participants pressed a button when the frequency of apparently fused lights is decreased such that lights begin to appear to be flashing.
as §1
The critical flicker fusion task (CFF; (Kupke & Lewis, 1989)) was used to test perceptual vigilance using the frequency of a flickering LED (between 12-50 Hz). The outcome variable for CFF is frequency (Hz) for ascending and descending trials. In the ascending trials, the participants pressed a button indicating when the light flickered to a speed where they appear to be continuously on or fused. In the descending trials, the participants pressed a button when the frequency of apparently fused lights is decreased such that lights begin to appear to be flashing.

[3] = test system: animal models; parameters: method as in PMID 39660766; details: preclinical and IND-enabling studies; cited from earlier work
[4] = Food effect study 120 mg, Fasting, Post-Drug
[5] = Food effect study 120 mg, Fasting, Pre-Drug
[6] = Food effect study 120 mg, Fed, Post-Drug
[7] = Food effect study 120 mg, Fed, Pre-Drug

## Cn1cc2c(-c3cc(F)c(CN4Cc5ncccc5C4=O)c(F)c3)cccc2n1 [VU319]
[1]; [4]
  SRT Delayed Recall: 11.3 (3.97)
  SRT Immediate Recall: 88.9 (19.83)
  SRT Recall Consistency: 55.7 (26.22)
  SRT Recall Failure: 10.2 (9.74)
[1]; [5]
  SRT Delayed Recall: 11.5 (3.69)
  SRT Immediate Recall: 86.6 (17.61)
  SRT Recall Consistency: 51.1 (24.64)
  SRT Recall Failure: 9.4 (8.54)
[1]; [6]
  SRT Delayed Recall: 10.9 (3.92)
  SRT Immediate Recall: 88.9 (20.45)
  SRT Recall Consistency: 53.4 (27.22)
  SRT Recall Failure: 8.3 (10.58)
[1]; [7]
  SRT Delayed Recall: 11.2 (3.33)
  SRT Immediate Recall: 88.7 (13.59)
  SRT Recall Consistency: 54 (18.33)
  SRT Recall Failure: 8 (6.11)
[1]; SAD study, 60 mg, Post-Drug
  SRT Delayed Recall: 8.83 (3.55)
  SRT Immediate Recall: 71.67 (14.95)
  SRT Recall Consistency: 35.33 (18.32)
  SRT Recall Failure: 19.83 (9.37)
[1]; SAD study, 60 mg, Pre-Drug
  SRT Delayed Recall: 9 (3.52)
  SRT Immediate Recall: 79.83 (13.18)
  SRT Recall Consistency: 44 (22.93)
  SRT Recall Failure: 13.5 (4.46)
[1]; SAD study, 120 mg, Post-Drug
  SRT Delayed Recall: 9.5 (5.86)
  SRT Immediate Recall: 84 (19.55)
  SRT Recall Consistency: 49.33 (25.15)
  SRT Recall Failure: 12.5 (10.78)
[1]; SAD study, 120 mg, Pre-Drug
  SRT Delayed Recall: 10.17 (5.42)
  SRT Immediate Recall: 84.67 (20.24)
  SRT Recall Consistency: 51.67 (27.6)
  SRT Recall Failure: 13 (9.76)
[1]; SAD study, 240 mg, Post-Drug
  SRT Delayed Recall: 9 (2.45)
  SRT Immediate Recall: 80.67 (13.65)
  SRT Recall Consistency: 41.5 (16.11)
  SRT Recall Failure: 10.83 (10.83)
[1]; SAD study, 240 mg, Pre-Drug
  SRT Delayed Recall: 10.67 (1.86)
  SRT Immediate Recall: 87.33 (11.38)
  SRT Recall Consistency: 54.33 (13.31)
  SRT Recall Failure: 10.83 (7.73)
[1]; SAD study, 400 mg, Post-Drug
  SRT Delayed Recall: 7.83 (3.87)
  SRT Immediate Recall: 70.83 (16.03)
  SRT Recall Consistency: 33.33 (18.24)
  SRT Recall Failure: 20 (11.15)
[1]; SAD study, 400 mg, Pre-Drug
  SRT Delayed Recall: 8.83 (4.79)
  SRT Immediate Recall: 76.33 (24.51)
  SRT Recall Consistency: 42.33 (29.85)
  SRT Recall Failure: 19 (15.66)
[1]; SAD study, 600 mg, Post-Drug
  SRT Delayed Recall: 8.67 (4.8)
  SRT Immediate Recall: 85.83 (21.7)
  SRT Recall Consistency: 51 (27.8)
  SRT Recall Failure: 10.67 (12.58)
[1]; SAD study, 600 mg, Pre-Drug
  SRT Delayed Recall: 11.83 (1.94)
  SRT Immediate Recall: 91.17 (11.81)
  SRT Recall Consistency: 59.83 (13.39)
  SRT Recall Failure: 8.17 (5.27)
[1]; SAD study, all p > 0.2
  SRT four outcome measures, effect of dose: did not show a significant effect of dose, nor dose by time
[1]; food effect study, 120 mg
  SRT performance, effect of food or time: no impact of food or time
[2]; [4]
  CFF Median Ascending score: 39.03 (5.2) Hz
  CFF Median Descending score: 38.59 (4.57) Hz
[2]; [5]
  CFF Median Ascending score: 34.62 (9.06) Hz
  CFF Median Descending score: 38.49 (5.19) Hz
[2]; [6]
  CFF Median Ascending score: 39.29 (4.38) Hz
  CFF Median Descending score: 39.36 (4.08) Hz
[2]; [7]
  CFF Median Ascending score: 39.09 (5.81) Hz
  CFF Median Descending score: 39.25 (3.25) Hz
[2]; SAD study, 60 mg, Post-Drug
  CFF Median Ascending score: 37.67 (3.1) Hz
  CFF Median Descending score: 38.32 (7.51) Hz
[2]; SAD study, 60 mg, Pre-Drug
  CFF Median Ascending score: 36.32 (4.6) Hz
  CFF Median Descending score: 37 (5.35) Hz
[2]; SAD study, 120 mg, Post-Drug
  CFF Median Ascending score: 36.53 (3.87) Hz
  CFF Median Descending score: 38.68 (3.31) Hz
[2]; SAD study, 120 mg, Pre-Drug
  CFF Median Ascending score: 37.33 (2.38) Hz
  CFF Median Descending score: 40.23 (4.95) Hz
[2]; SAD study, 240 mg, Post-Drug
  CFF Median Ascending score: 38.12 (4.1) Hz
  CFF Median Descending score: 37.25 (6.89) Hz
[2]; SAD study, 240 mg, Pre-Drug
  CFF Median Ascending score: 32.72 (9.97) Hz
  CFF Median Descending score: 37.1 (6.52) Hz
[2]; SAD study, 400 mg, Post-Drug
  CFF Median Ascending score: 39.98 (3.97) Hz
  CFF Median Descending score: 40.05 (3.01) Hz
[2]; SAD study, 400 mg, Pre-Drug
  CFF Median Ascending score: 37.92 (3.7) Hz
  CFF Median Descending score: 39.67 (2.1) Hz
[2]; SAD study, 600 mg, Post-Drug
  CFF Median Ascending score: 36.58 (3.14) Hz
  CFF Median Descending score: 39.73 (5.18) Hz
[2]; SAD study, 600 mg, Pre-Drug
  CFF Median Ascending score: 35.45 (3.61) Hz
  CFF Median Descending score: 39.22 (5.92) Hz
[2]; SAD study, both p > 0.3
  CFF ascending trial, effect of dose: no effect of dose, nor a dose by time interaction
[2]; food effect study, 120 mg, p = 0.07
  CFF ascending condition, post- vs pre-dose, effect size d: 1.37
[3]
  SLUDGE effects in animal models: without producing SLUDGE effects
  cognition in animal models: effective at improving cognition
